Experimental data reported in US12605335B2, “Triptolide lignocerate, liposome thereof and preparation method therefor” (SHANGHAI WEI ER BIOPHARMACEUTICAL TECHNOLOGY CO., LTD., priority 2022, dated 2026).
Where two headings read alike, the source gives them in different places.

Key:
[1] = Log P determination by shake-flask; assay type: physicochemical
Experimental: The log P was determined by shake-flask. First, a certain amount of water and n-octanol are added into the funnel, shaken and separated to obtain water-saturated n-octanol solution and n-octanol saturated aqueous solution; quantify and accurately weigh triptolide and its derivatives in a volumetric bottle containing water-saturated n-octanol solution, and dissolve by ultrasound, drop water-saturated n-octanol solution, dilute and volume. Take 0.5 mL of this solution in a 5 mL volumetric flask, dilute with MeOH and volume. The concentration of triptolide and its derivatives was determined by the assay method; take the above solution to the Xilin bottle, add 10 times the amount of n-octanol saturated aqueous solution, and shake in a bath of 37° C. and 75 rpm for one day, so that triptolide and its derivatives reach equilibrium state in aqueous and organic phase. The n-octanol phase was transferred into a centrifuge tube, centrifuged at 3000 rpm for 10 min, precision measuring n-octanol phase in a volumetric flask, diluted 10 times with MeOH solution, and measured the content of triptolide and its derivatives in n-octanol phase. Drug concentration in the aqueous phase=total drug concentration-drug concentration in the n-octanol phase.
[formula] 3. The Content Determination Method of Triptolide and Its Derivatives in This Embodiment is Determined by High-Performance Liquid Chromatography (2020 Edition, Chinese Pharmacopoeia's Fourth Part Rule 0512), as Follows: • Chromatographic conditions: using chromatographic column: Agilent ZORBAX Eclipse Plus C18 column (4.6 mm×250 mm, 5 μm), mobile phase: 100% MeOH, column temperature: 30° C., flow rate: 1.0 mL/min, sample input: 20 μL, detection wavelength: 218 nm. • Preparation of control solution: accurately weighing triptolide and its derivatives 10 mg, placed in a 10 mL volumetric flask, dissolved with methanol and diluted to the scale line, shake well, as the control reserve solution. • Preparation of standard curve: Reserve solutions of different volumes of control were diluted to produce series solutions with mass concentrations of 5.00, 10.00, 25.00, 50.00, 100.00, 250.00, and 500.00 μg/mL, respectively. 20 μL of each sample was injected into the HPLC system and analyzed according to the “Chromatographic Conditions”. With the concentration C (μg/mL) as the abscissa and the peak area A as the ordinate, the linear regression is obtained. • Assay: accurately absorb 1 mL of each sample solution of triptolide and its derivatives to a 5 mL volumetric flask, dilute with methanol to the scale line, and vortex-mix evenly. 20 μL was injected into the HPLC chromatogram, recorded and calculated by the peak area according to the standard curve method. 4. Experimental Results

[2] = tested on: Panc 02 pancreatic cancer model; experiment: In vivo antitumor effect, Panc 02 pancreatic cancer model (Example 5); set-up: species or system mouse; conditions: ICR mice, tail vein 0.6 mg/kg (per TP) every two days, 4 doses
Experimental: Mouse pancreatic cancer Panc02 cells were cultured in DMEM medium at 37° C., 5% CO2 and passaged on average every two days. During the log growth phase, the cell concentration was adjusted to 1×10^7/mL, and Panc 02 cells were subcutaneously seeded in the right axilla of ICR mice under sterile conditions to establish a mouse pancreatic cancer model. When the mouse tumor volume was grown to 100-300 mm^3, the mice were randomly divided into 6 groups according to the tumor volume, with 6 mice in each group. The blank, TP (DMSO), TP-SA, TP-EA, TP-BA, and TP-LA were set. The mouse tail vein injection was 0.6 mg/kg (per TP), and the blank group was given 0.2 mL saline every two days for a total of 4 doses. The mice were killed on the third day of drug withdrawal, the mice were weighed, the tumor body was dissected and weighed, and the tumor suppression rate was calculated.
[formula] 3. Anti-Tumor Effect

[3] = Pharmacokinetic study in rats; conditions: male, Sprague-Dawley (SD), rat, in vivo, iv, 0.6 mg/kg
Experimental: Rat tail vein dose of equimolar TP 0.6 mg/kg, blood collection time point set at 6 min, 12 min, 18 min, 30 min, 48 min, 1 h, 1.5 h, 2 h, 2.5 h, 3 h, 5 h, 12 h, 24 h, 72 h, 5 SD rats from each group (♂).
Sample processing and analysis method: take plasma with 4 times the amount of methanol to precipitate protein, centrifugation at 12000 r/min for 10 min; remove the supernatant to remove methanol, extract the remaining residue with 400 μL methyl-t-butyl ether twice, centrifugation at 12000 r/min for 10 min. The organic extraction phase was collected, concentrated and dried, 100 μL of methanol was added for redissolution, and the supernatant was centrifuged into the LC-MS/MS system to calculate the plasma concentration by using DAS 2.0 software.

[4] = tested on: Panc 02 pancreatic cancer model; experiment: In vivo antitumor effect, Panc 02 pancreatic cancer model (Example 55); set-up: species or system mouse; conditions: ICR mice, 4 doses
Experimental: Panc 02 pancreatic cancer cells were cultured in DMEM medium at 37° C. with 5% CO2. Cells were passaged every two days during logarithmic growth phase until reaching a concentration of 1×10^7 cells/mL. Under sterile conditions, Panc 02 cells were subcutaneously implanted into the right axilla of ICR mice to establish the pancreatic cancer model. Once the tumor volume grew to 100-300 mm^3, mice were randomly divided into 6 groups of 6 animals each. Groups included blank control group, TP (DMSO) solution group, Minnelide solution group, and TP-LA liposome dose groups. Drugs were administered via tail vein injection at a dose of 0.6 mg/kg (based on TP) every other day for a total of 4 doses. On the third day after the last administration, mice were euthanized. Body weights were recorded, tumors were excised and weighed, and tumor inhibition rates were calculated.
[formula] 3. Antitumor Effects

[5] = in vivo; triptolide released via in vivo conversion of the liposomes, or triptolide itself; cited from earlier work
[6] = CN106946975A; cited from earlier work
tumor = conditions: Huang 2020; cited from earlier work
ear vein = experiment: Vascular irritation evaluation, rabbit ear vein; assay type: in vivo; conditions: rabbits, ear vein 0.22 mg/kg (based on TP), daily for three days, histology 48 hours after last administration
Experimental: […] (weighing 1.5-2.0 kg) were randomly divided into 6 groups. Each group received intravenous injection via the right ear vein of either saline solution, TP-LA liposomes prepared according to Examples 35, 42, and 53, TP (DMSO) solution, or Minnelide solution, at a dose of 0.22 mg/kg (calculated based on TP), administered at a rate of 1 mL/min. Simultaneously, saline of equal volume was administered via the left ear vein as a control. This procedure was repeated daily for three consecutive days.
During each day of administration, the animals' behavior and pathological changes at the injection site were observed macroscopically. Euthanasia was performed 48 hours after the last administration. Tissue samples were collected approximately 2.0 cm towards the central end from the injection site on the ear vein, fixed in 10% paraformaldehyd solution, dehydrated using an ethanol gradient, embedded in paraffin, and sectioned into slices stained with hematoxylin and […]. All samples were examined using a BX43-DP21 light microscope (Olympus Corporation, Japan), and pathological changes were assessed.

advanced solid tumors = conditions: patients with advanced solid tumors, intravenous once a week; cited from earlier work
[7] = tail vein 0.6 mg/kg (based on TP) every other day
[8] = shake-flask, n-octanol/water, 37° C., read-out: log P

CC(C)[C@]12O[C@H]1[C@@H]1O[C@]13[C@]1(O[C@H]1C[C@H]1C4=C(CC[C@@]13C)C(=O)OC4)[C@@H]2O [Triptolide]
logP at 1 day [1]: 0.52 ± 0.01
Mean tumor weight [2]: 0.517 ± 0.097 g
Tumor Suppression rate [2]: 41.12%
AUC(0-inf) [3]: 0.337 ng·h/mL
Cmax [3]: 0.698 ng/mL
MRT [3]: 32.8 min
[formula] (half-life) [3]: 13.2 ± 2.4 min
Mean tumor weight [4, 7]: 0.417 ± 0.097 g
Tumor inhibition rate [4, 7]: 40.26%
biological half-life of triptolide [5]: 15 min
liposomal encapsulation rate [6]: less than 50%
Tumor inhibition rate (tumor): 17.67%

CC(C)[C@]12O[C@H]1[C@@H]1O[C@]13[C@]1(O[C@H]1C[C@H]1C4=C(CC[C@@]13C)C(=O)OC4)[C@@H]2OCOP(=O)(O)O [Minnelide]
Body weight change [4, 7]: 1.09%
Mean tumor weight [4, 7]: 0.222 ± 0.029 g
Tumor inhibition rate [4, 7]: 68.19%
tail vein irritation after administration ([4]; tail vein 0.6 mg/kg (based on TP)): varying degrees of tail swelling and ulceration
vascular irritation, pathological changes of ear vein (ear vein): congestion and some instances of bleeding

CCCCCCCCCCCCCCCCCCCCCC(=O)O[C@@H]1[C@@]2(C(C)C)OC2[C@@H]2O[C@]23[C@]12O[C@H]2CC1C2=C(CC[C@@]13C)C(=O)OC2 (stereo partly shown) [Triptolide behenate, triptolide behenate]
logP at 1 day [1, 8]: 2.78 ± 0.04

CCCCCCCCCCCCCCCCCC(=O)O[C@@H]1[C@@]2(C(C)C)OC2[C@@H]2O[C@]23[C@]12O[C@H]2CC1C2=C(CC[C@@]13C)C(=O)OC2 (stereo partly shown) [Triptolide stearate, triptolide stearate]
logP at 1 day [1, 8]: 2.41 ± 0.04

CCCCCCCCCCCCCCCCCCCCCCCC(=O)O[C@@H]1[C@@]2(C(C)C)OC2[C@@H]2O[C@]23[C@]12O[C@H]2CC1C2=C(CC[C@@]13C)C(=O)OC2 (stereo partly shown) [Triptolide lignocerate, triptolide lignocerate]
logP at 1 day [1, 8]: 3.12 ± 0.03

CC(C)[C@]12O[C@H]1[C@@H]1O[C@]13[C@]1(O[C@H]1C[C@H]1C4=C(CC[C@@]13C)C(=O)OC4)[C@@H]2OC(=O)CCC(=O)[O-].[Na+] [PG490-88Na]
grade of most frequently reported adverse reactions (anemia, malaise, nausea, vomiting, diarrhea, constipation) (advanced solid tumors): 1-2
interindividual variability in pharmacokinetic properties (advanced solid tumors): 2- to 3 fold
